In PubChem BioAssay (NCI):
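Dose response: 5 concentrations. Exposure: 48 h. Format: 96-well plates. Endpoint: linear interpolation; highest concentration if not reached. GI50 is the concentration that inhibits growth by half. TGI marks complete inhibition of growth.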

Columns and labels:
Assay in all cases: inhibition of tumour cell growth, NCI panel, 48 h
[1] = system: NCI-H23 lung
[2] = system: SF-539 CNS
[3] = system: U251 CNS
[4] = system: SW-620 colon
[5] = system: LOX IMVI melanoma
[6] = system: UACC-257 melanoma
[7] = system: SNB-19 CNS
[8] = system: HT29 colon
[9] = system: SF-295 CNS
[10] = system: SK-MEL-28 melanoma

SMILES	GI50 [1] [µM]	TGI [1] [µM]	GI50 [2] [µM]	TGI [2] [µM]	GI50 [3] [µM]	TGI [3] [µM]	GI50 [4] [µM]	TGI [4] [µM]	GI50 [5] [µM]	TGI [5] [µM]	GI50 [6] [µM]	TGI [6] [µM]	GI50 [7] [µM]	TGI [7] [µM]	GI50 [8] [µM]	TGI [8] [µM]	GI50 [9] [µM]	TGI [9] [µM]	GI50 [10] [µM]	TGI [10] [µM]
Cc1nc2sc(C(=O)Nc3cccc(Br)c3C)c(N)c2cc1C(O)c1ccccc1 (stereo not drawn)	0.0616	15	0.0256	0.0733	0.0438	14.6	0.0382	19.3	0.0496	6.93	1.46	27	0.0598	> 100	0.0374	12.7	0.0335	6.64	1.51	22
CC1(C)C(N2CCOCC2)CS1(=O)=O (stereo not drawn)		> 10		> 10		> 10		> 10		> 10		> 10		> 10		> 10		> 10		> 10
C[C@]12CC[C@H](O[C@@H]3O[C@H](CO[C@@H]4O[C@H](CO)[C@@H](O)[C@H](O)[C@H]4O)[C@@H](O)[C@H](O)[C@H]3O)C[C@@H]1CC[C@@H]1[C@@H]2CC[C@]2(C)[C@@H](C3=CC(=O)OC3)CC[C@]12O		28.1		33.2		> 100		> 100		65.6		> 73.3		> 100		> 100		> 31.6		> 100
CN(C)c1ccc(/C=C(\C#N)c2cc3ccccc3[nH]2)cc1	3.21	> 100	1.97	35.1	0.913	18.6	0.39	61.9	0.692	> 100	4.86	> 100	2.23	> 100	0.375	15.9	0.61	7.33	2.63	> 100
Brc1ccccc2cc(-c3ccccc3)nc1-2		21.2		17.7		37.5		> 36.2		21.4		32		40.7		> 90.3		48.9		29.8
NS(=O)(=O)c1ccc(N=Nc2ccc[nH]c2=O)cc1		> 100		> 100		> 100		> 100		> 100		> 100		> 100		> 100		> 100		> 100
CCOC(=O)C1=C(C)NC(=O)NC1c1ccc(OC)cc1OC (stereo not drawn)		> 100				> 100		> 100		> 100		> 100		> 100		> 100		> 100		
NC(=O)c1c(NC(=O)c2cccs2)sc2c1CCC(=O)C2	1.83	7.34	1.54	5.06	2.28	> 100	0.809	16.8	2.44	14.2	2.73	7.08	3.49	> 100	3.12	> 100	2.86	9.42	4.52	> 100
